According to patent publication US7811352B2, “Fertilizer compositions and methods of using” (priority 2005, dated 2010):

Key:
[1] = test system: Pennlinks creeping bentgrass for greens; experiment: Turfgrass quality rating, greens creeping bentgrass (Example 16); assay type: in vivo; details: scale of 1-9
Excerpt: In this Example, the effect of a fertilizer comprising lysine on cool season greens quality turfgrass growth was examined. The effects of lysine (HCl) and LIQUID LYSINE on a common type of golf course greens quality turfgrass (Pennlinks creeping bentgrass for greens, mown at 0.1875 in height of cut) were compared with those of urea, Milorganite and a blended fertilizer (a blend of methylene urea and urea in an approximately 1:1 ratio).
Fifteen fertilizer treatments comprising three concentrations of each fertilizer composition (Milorganite (N—P—K, 6-2-0), urea (N—P—K, 46-0-0), a blended fertilizer, LIQUID LYSINE N—P—K, 10-2-1), and lysine (HCl) (N—P—K, 15-2-1)) were prepared and applied to 3 replications of well established Pennlinks creeping bentgrass mown to 0.1875 in height cut. The urea, lysine (HCl), and LIQUID LYSINE were dissolved/suspended in 1.5 gal water prior to application. Each fertilizer treatment was applied in concentrations of 0.125 lb N/1000 ft^2/week, 0.250 lb N/1000 ft^2/week and 0.750 lb N/1000 ft^2/week. The urea, LIQUID LYSINE and lysine (HCl) were applied as foliar liquids, while Milorganite and blended fertilizer were applied as granular fertilizers. Plot size was 4 ft×8 ft laid out in a replicated complete block design. Plots were mowed at 0.1875 inches height before fertilizer application and mowed five times per week to 0.1875 inch height. Grass clippings were removed from the plots after each mowing. Irrigation (0.15 inch) was applied following application and daily thereafter. Plots were rated for turfgrass quality (scale of 1-9 where 9=dark green turf, 1=dead/brown turf, and 6=minimally acceptable turf) and phytotoxic injury (scale of 0-9 where 9=significant foliar injury and 2=minimally objectionable foliar injury) throughout the study period. Quality was measured prior to application (day 0) and day 37, day 70 and day 95 after application. Injury was measured on day 37, day 70 and day 95 after application. Ai) additional set of turfgrass plots were fertilized with three treatments of a soy concentrate fertilizer with the same application rates and methods. The quality and phytotoxic injury of the soy concentrate fertilizer plots were measured on day 95. All data was subject to statistical analysis and significant means were determined.

[2] = test system: ultra-dwarf Bermuda grass; experiment: Turfgrass quality and color ratings, ultra-dwarf Bermuda grass greens (Example 11); assay type: in vivo; parameters: key: 1-10 scale: 10 = dark green, 6 = initially acceptable, 1 = dead/brown; details: scale 1-10
Excerpt: In this Example, the effect of a fertilizer comprising lysine on warm season turfgrass growth was examined. The effects of lysine (HCl) and LIQUID LYSINE on a common type of golf course greens quality turfgrass (ultra-dwarf Bermuda grass) were compared with those of urea and Milorganite.
Twelve fertilizer treatments comprising three concentrations of each fertilizer composition (Milorganite (N—P—K, 6-2-0), urea (N—P—K, 46-0-0), LIQUID LYSINE (N—P—K, 10-2-1), and lysine (HCl) (N—P—K, 15-2-1)) were prepared and applied to 3 replications of ultra-dwarf Bermuda grass. The lysine (HCl) was dissolved in water prior to application. Each fertilizer treatment was applied in concentrations of 0.125 lb N/1000 ft^2/week, 0.25 lb N/1000 ft^2/week and 0.75 lb N/1000 ft^2/week. The urea, LIQUID LYSINE and lysine (HCl) were applied as foliar liquids, while Milorganite was applied as a granular fertilizer. Plot size was 1 m×1 m set up as a randomized complete block. Plots were mowed at 0.125 inches before fertilizer application. Irrigation (0.15 inch) was applied following application. Plots were rated for turfgrass quality and color (scale of 1-10 where 10=dark green turf, 1=dead/brown turf, and 6=initially acceptable turf) and phytotoxicity (scale of 0-5, where 5=worst, and 2=minimally objectionable) throughout the study period. Quality, color, and phytotoxicity were measured on 2 days before application (day −2) and day 2, day 5, day 15 and day 21 after application. All data was subject to statistical analysis and significant means were determined. Average turfgrass quality ratings for the treatments are presented in Table 12 and the quality results for application rates of 0.25 lb N/1000 ft^2/week are graphically presented in FIG. 6.

[3] = Weekly Rate 0.125 lbs N/1000 ft^2, Day 0
[4] = Weekly Rate 0.125 lbs N/1000 ft^2, Day 37
[5] = Weekly Rate 0.125 lbs N/1000 ft^2, Day 70
[6] = Weekly Rate 0.125 lbs N/1000 ft^2, Day 95
[7] = Weekly Rate 0.25 lbs N/1000 ft^2, Day 0
[8] = Weekly Rate 0.25 lbs N/1000 ft^2, Day 37
[9] = Weekly Rate 0.25 lbs N/1000 ft^2, Day 70
[10] = Weekly Rate 0.25 lbs N/1000 ft^2, Day 95
[11] = Weekly Rate 0.75 lbs N/1000 ft^2, Day 0
[12] = Weekly Rate 0.75 lbs N/1000 ft^2, Day 37
[13] = Weekly Rate 0.75 lbs N/1000 ft^2, Day 70
[14] = Weekly Rate 0.75 lbs N/1000 ft^2, Day 95
[15] = Weekly Rate 0.125 lbs N/1000 ft^2, Day 2
[16] = Weekly Rate 0.125 lbs N/1000 ft^2, Day 5
[17] = Weekly Rate 0.125 lbs N/1000 ft^2, Day 15
[18] = Weekly Rate 0.125 lbs N/1000 ft^2, Day 21
[19] = Weekly Rate 0.125 lbs N/1000 ft^2, Day −2 (before application)
[20] = Weekly Rate 0.25 lbs N/1000 ft^2, Day 2
[21] = Weekly Rate 0.25 lbs N/1000 ft^2, Day 5
[22] = Weekly Rate 0.25 lbs N/1000 ft^2, Day 15
[23] = Weekly Rate 0.25 lbs N/1000 ft^2, Day 21
[24] = Weekly Rate 0.25 lbs N/1000 ft^2, Day −2 (before application)
[25] = Weekly Rate 0.75 lbs N/1000 ft^2, Day 2
[26] = Weekly Rate 0.75 lbs N/1000 ft^2, Day 5
[27] = Weekly Rate 0.75 lbs N/1000 ft^2, Day 15
[28] = Weekly Rate 0.75 lbs N/1000 ft^2, Day 21
[29] = Weekly Rate 0.75 lbs N/1000 ft^2, Day −2 (before application)

## Cl.NCCCC[C@H](N)C(=O)O [Lys (HCl) 15% N, L-lysine monohydrochloride]
[1]; [3]
  Quality Rating - Greens Bentgrass: 4.7cd
[1]; [4]
  Quality Rating - Greens Bentgrass: 5.0de
[1]; [5]
  Quality Rating - Greens Bentgrass: 6.0bc
[1]; [6]
  Quality Rating - Greens Bentgrass: 6.0ab
[1]; [7]
  Quality Rating - Greens Bentgrass: 4.7cd
[1]; [8]
  Quality Rating - Greens Bentgrass: 6.0bcd
[1]; [9]
  Quality Rating - Greens Bentgrass: 6.0bc
[1]; [10]
  Quality Rating - Greens Bentgrass: 6.3ab
[1]; [11]
  Quality Rating - Greens Bentgrass: 6.0a
[1]; [12]
  Quality Rating - Greens Bentgrass: 7.0ab
[1]; [13]
  Quality Rating - Greens Bentgrass: 7.0a
[1]; [14]
  Quality Rating - Greens Bentgrass: 7.0a
[2]; [15]
  Color Rating - Dwarf Bermuda Grass: 7.2bc
  Quality Ratings - Dwarf Bermuda Grass: 7.3bcd
[2]; [16]
  Color Rating - Dwarf Bermuda Grass: 7.0cd
  Quality Ratings - Dwarf Bermuda Grass: 6.7de
[2]; [17]
  Color Rating - Dwarf Bermuda Grass: 6.8c-f
  Quality Ratings - Dwarf Bermuda Grass: 6.3ef
[2]; [18]
  Color Rating - Dwarf Bermuda Grass: 6.5cd
  Quality Ratings - Dwarf Bermuda Grass: 6.2cd
[2]; [19]
  Color Rating - Dwarf Bermuda Grass: 6.8
  Quality Ratings - Dwarf Bermuda Grass: 6.8
[2]; [20]
  Color Rating - Dwarf Bermuda Grass: 7.2bc
  Quality Ratings - Dwarf Bermuda Grass: 7.2cd
[2]; [21]
  Color Rating - Dwarf Bermuda Grass: 7.2bcd
  Quality Ratings - Dwarf Bermuda Grass: 7.2cd
[2]; [22]
  Color Rating - Dwarf Bermuda Grass: 7.2bcd
  Quality Ratings - Dwarf Bermuda Grass: 7.2abc
[2]; [23]
  Color Rating - Dwarf Bermuda Grass: 7.3ab
  Quality Ratings - Dwarf Bermuda Grass: 7.2ab
[2]; [24]
  Color Rating - Dwarf Bermuda Grass: 7.0
  Quality Ratings - Dwarf Bermuda Grass: 6.5
[2]; [25]
  Color Rating - Dwarf Bermuda Grass: 7.3abc
  Quality Ratings - Dwarf Bermuda Grass: 7.5abc
[2]; [26]
  Color Rating - Dwarf Bermuda Grass: 7.2bcd
  Quality Ratings - Dwarf Bermuda Grass: 7.5bc
[2]; [27]
  Color Rating - Dwarf Bermuda Grass: 7.7ab
  Quality Ratings - Dwarf Bermuda Grass: 7.3abc
[2]; [28]
  Color Rating - Dwarf Bermuda Grass: 7.2b
  Quality Ratings - Dwarf Bermuda Grass: 6.8abc
[2]; [29]
  Color Rating - Dwarf Bermuda Grass: 6.7
  Quality Ratings - Dwarf Bermuda Grass: 6.5

## NC(N)=O [Urea, urea, reference compound]
[1]; [3]
  Quality Rating - Greens Bentgrass: 4.3de
[1]; [4]
  Quality Rating - Greens Bentgrass: 4.7ef
[1]; [5]
  Quality Rating - Greens Bentgrass: 5.7c
[1]; [6]
  Quality Rating - Greens Bentgrass: 5.7b
[1]; [7]
  Quality Rating - Greens Bentgrass: 5.0bc
[1]; [8]
  Quality Rating - Greens Bentgrass: 6.3bc
[1]; [9]
  Quality Rating - Greens Bentgrass: 6.0bc
[1]; [10]
  Quality Rating - Greens Bentgrass: 6.0ab
[1]; [11]
  Quality Rating - Greens Bentgrass: 5.3b
[1]; [12]
  Quality Rating - Greens Bentgrass: 8.0a
[1]; [13]
  Quality Rating - Greens Bentgrass: 7.0a
[1]; [14]
  Quality Rating - Greens Bentgrass: 6.7ab
[2]; [15]
  Color Rating - Dwarf Bermuda Grass: 7.7ab
  Quality Ratings - Dwarf Bermuda Grass: 7.7abc
[2]; [16]
  Color Rating - Dwarf Bermuda Grass: 7.7ab
  Quality Ratings - Dwarf Bermuda Grass: 7.5bc
[2]; [17]
  Color Rating - Dwarf Bermuda Grass: 7.2bcd
  Quality Ratings - Dwarf Bermuda Grass: 7.0bcd
[2]; [18]
  Color Rating - Dwarf Bermuda Grass: 6.8bc
  Quality Ratings - Dwarf Bermuda Grass: 6.7abc
[2]; [19]
  Color Rating - Dwarf Bermuda Grass: 7.0
  Quality Ratings - Dwarf Bermuda Grass: 6.5
[2]; [20]
  Color Rating - Dwarf Bermuda Grass: 7.7ab
  Quality Ratings - Dwarf Bermuda Grass: 7.7abc
[2]; [21]
  Color Rating - Dwarf Bermuda Grass: 7.3abc
  Quality Ratings - Dwarf Bermuda Grass: 7.5bc
[2]; [22]
  Color Rating - Dwarf Bermuda Grass: 7.3bc
  Quality Ratings - Dwarf Bermuda Grass: 7.0bcd
[2]; [23]
  Color Rating - Dwarf Bermuda Grass: 7.3ab
  Quality Ratings - Dwarf Bermuda Grass: 6.8abc
[2]; [24]
  Color Rating - Dwarf Bermuda Grass: 6.7
  Quality Ratings - Dwarf Bermuda Grass: 6.3
[2]; [25]
  Color Rating - Dwarf Bermuda Grass: 7.8a
  Quality Ratings - Dwarf Bermuda Grass: 8.2a
[2]; [26]
  Color Rating - Dwarf Bermuda Grass: 7.8a
  Quality Ratings - Dwarf Bermuda Grass: 8.3a
[2]; [27]
  Color Rating - Dwarf Bermuda Grass: 8.0a
  Quality Ratings - Dwarf Bermuda Grass: 7.5ab
[2]; [28]
  Color Rating - Dwarf Bermuda Grass: 7.8a
  Quality Ratings - Dwarf Bermuda Grass: 7.3a
[2]; [29]
  Color Rating - Dwarf Bermuda Grass: 6.8
  Quality Ratings - Dwarf Bermuda Grass: 6.3
